From US7598269B2, “Methods and compositions for treating amyloid-related diseases” (Bellus Health (International) Limited, priority 2003, dated 2009)

Assays:
Aβ40 = biological target: T1, Aβ40 (Homo sapiens, UniProt P05067); assay: Short term treatment of TgCRND8 mice: Aβ40 levels in plasma and brain (ELISA); type: in vivo, Mouse; settings: for Aβ40 Change: plasma, TgCRND8 mice
T1 construct: from tissue; host or cells: plasma and brain homogenate of TgCRND8 transgenic mice (hAPP transgene)
Excerpt: (§1) Transgenic mice, […]8, expressing the human amyloid precursor protein (hAPP) develop a pathology resembling Alzheimer's disease. In particular, high levels of Aβ40 and Aβ42 have been documented in the plasma and the brain of these animals at 8-9 weeks of age, followed by early accumulation of amyloid plaques similar to the senile plaques observed in […]. These animals also display progressive cognitive deficits that parallel the appearance of degenerative changes. See, […], et al., J. Biol. Chem. 276, 21562-70 (2001). The short term therapeutic effect of 19 compounds of the invention was studied. […] The following abbreviations are used to designate these animals from the 3rd and 4th generation backcross in the present protocol: TgCRND8-2.B6C3F1 (N3); TgCRND8-2.B6C3F1 (N4). Baseline animals (Group 1) consisted of naive TgCRND8-2.B6C3F1(N3) at 11±1 weeks of age. These mice were used to determine the Aβ levels in the plasma and brain of naive transgenic animals at the initiation of treatment. […] At the end of the treatment periods, plasma and perfused brains were collected for quantification of Aβ levels. […] Plasma samples were immediately frozen and stored at -80° C. pending analysis. The brains were removed, frozen, and stored at -80° C. awaiting analysis. […] Samples were spun at 15000 g for 20 minutes and the supernatants were transferred to fresh tubes. […] The tubes were vortexed for 30 seconds and frozen at -80° C. […] Samples were thawed at room temperature, sonicated at 80° C. for 15 minutes and frozen again. This cycle was repeated 3 times to ensure homogeneity and samples were returned to -80° C. pending analysis. Aβ levels were evaluated in plasma and brain samples by ELISA using Human Aβ40 and Aβ42 Fluorometric ELISA kits from Biosource (Cat. […] In short, samples were thawed at room temperature, sonicated for 5 minutes at 80° C. (sonication for brain homogenates; no sonication for plasma samples) and kept on ice. Aβ peptides were captured using 100 μl of the diluted samples to the plate and incubated without shaking at 4° C. overnight. The samples were aspirated and the wells were rinsed 4 times with wash buffer obtained from the Biosource ELISA kit. The anti-Aβ40 or anti-Aβ42 rabbit polyclonal antiserum (specific for the Aβ40 or Aβ42 peptide) was added (100 μl) and the plate was incubated at room temperature for 2 hours with shaking. The wells were aspirated and washed 4 times before adding 100 μl of the alkaline phosphatase labeled anti-rabbit antibody and incubating at room temperature for 2 hours with shaking. The plates were then rinsed 5 times and the fluorescent substrate (100 μl) was added to the plate. The plate was incubated for 35 minutes at room temperature and the plate was read using a titer plate reader at an excitation wavelength of 460 nm and emission at 560 nm. Compounds were scored based on their ability to modulate levels of Aβ peptides in the plasma and the cerebral soluble/insoluble levels in the brain. Levels of Aβ observed in the plasma and brain of treated animals were normalized using values from vehicle-treated (water) or methylcellulose-treated control groups and ranked according to the strength of the pharmacological effect. Increases in the levels of Aβ peptides are indicated using “+” symbols, while decreases in the levels of Aβ peptides are indicated using “-” symbols. The strongest effects are recorded as “+++” or “---” while the weakest are shown as “+” or “-”.

Aβ42 = biological target: T2, Aβ42 (Homo sapiens, UniProt P05067); assay: Short term treatment of TgCRND8 mice: Aβ42 levels in plasma and brain (ELISA); type: in vivo, Mouse; settings: for Aβ42 Change: plasma, TgCRND8 mice
T2 construct: from tissue; host or cells: plasma and brain homogenate of TgCRND8 transgenic mice (hAPP transgene)
Excerpt: as §1

[1] = brain homogenate, vehicle group, Day 14, 250 mg/kg daily subcutaneous
[2] = brain homogenate, vehicle group, Day 28, 250 mg/kg daily subcutaneous
[3] = vehicle (water) group, Day 14, 250 mg/kg daily subcutaneous
[4] = vehicle (water) group, Day 28, 250 mg/kg daily subcutaneous
[5] = brain homogenate, methylcellulose group, Day 14, 250 mg/kg daily oral
[6] = brain homogenate, methylcellulose group, Day 28, 250 mg/kg daily oral
[7] = methylcellulose group, Day 14, 250 mg/kg daily oral

T1 sequence (P05067 672-711 limits assumed): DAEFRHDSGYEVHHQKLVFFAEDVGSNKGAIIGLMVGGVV
T2 sequence (P05067 672-713 limits assumed): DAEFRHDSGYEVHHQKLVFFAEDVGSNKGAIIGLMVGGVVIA

SMILES | Aβ40 Change Insoluble (Aβ40; [1]) | Aβ40 Change Soluble (Aβ40; [1]) | Aβ40 Change Insoluble (Aβ40; [2]) | Aβ40 Change (Aβ40; [3]) | Aβ40 Change (Aβ40; [4]) | Aβ42 Change Insoluble (Aβ42; [1]) | Aβ42 Change Soluble (Aβ42; [1]) | Aβ42 Change Insoluble (Aβ42; [2]) | Aβ42 Change Soluble (Aβ42; [2]) | Aβ42 Change (Aβ42; [3]) | Aβ42 Change (Aβ42; [4]) | Aβ40 Change Soluble (Aβ40; [2]) | Aβ40 Change Insoluble (Aβ40; [6]) | Aβ40 Change Soluble (Aβ40; [6]) | also measured
CCCCCCCNCCCS(=O)(=O)O [CX, 3-heptylamino-1-propane-sulfonic acid] | − (Decreases in the levels of Aβ of 5 to 19% are scored as “−”) | − (Decreases in the levels of Aβ of 5 to 19% are scored as “−”) | + (increases in the levels of Aβ (relative to untreated control) of 20 to 39% are scored as “+”) | ++ (increases of 40 to 69% are scored as “++”) | ++ (increases of 40 to 69% are scored as “++”) | − (Decreases in the levels of Aβ of 5 to 19% are scored as “−”) | + (increases in the levels of Aβ (relative to untreated control) of 20 to 39% are scored as “+”) | +++ (increases of 70% or higher are scored as “+++”) | ++ (increases of 40 to 69% are scored as “++”) | ++ (increases of 40 to 69% are scored as “++”) | + (increases in the levels of Aβ (relative to untreated control) of 20 to 39% are scored as “+”) |  |  |  | 
NCCSS(=O)(=O)O [BE] |  | + (increases in the levels of Aβ (relative to untreated control) of 20 to 39% are scored as “+”) | − (Decreases in the levels of Aβ of 5 to 19% are scored as “−”) | ++ (increases of 40 to 69% are scored as “++”) | +++ (increases of 70% or higher are scored as “+++”) | +++ (increases of 70% or higher are scored as “+++”) | +++ (increases of 70% or higher are scored as “+++”) | +++ (increases of 70% or higher are scored as “+++”) | +++ (increases of 70% or higher are scored as “+++”) | +++ (increases of 70% or higher are scored as “+++”) | +++ (increases of 70% or higher are scored as “+++”) | + (increases in the levels of Aβ (relative to untreated control) of 20 to 39% are scored as “+”) |  |  | 
CC[C@@H](CO)NCCCS(=O)(=O)O [CU, (S)-3-(1-hydroxy-2-butylamino)-1-propanesulfonic acid] |  | + (increases in the levels of Aβ (relative to untreated control) of 20 to 39% are scored as “+”) | +++ (increases of 70% or higher are scored as “+++”) |  | + (increases in the levels of Aβ (relative to untreated control) of 20 to 39% are scored as “+”) | − (Decreases in the levels of Aβ of 5 to 19% are scored as “−”) | ++ (increases of 40 to 69% are scored as “++”) | +++ (increases of 70% or higher are scored as “+++”) | ++ (increases of 40 to 69% are scored as “++”) |  | + (increases in the levels of Aβ (relative to untreated control) of 20 to 39% are scored as “+”) |  |  |  | 
CC(CO)NCCCS(=O)(=O)O (stereo not shown) [CW, 3-(1-hydroxy-2-propylamino)-1-propanesulfonic acid] |  |  |  | ++ (increases of 40 to 69% are scored as “++”) | ++ (increases of 40 to 69% are scored as “++”) |  |  |  |  | ++ (increases of 40 to 69% are scored as “++”) | + (increases in the levels of Aβ (relative to untreated control) of 20 to 39% are scored as “+”) |  |  |  | Aβ40 Change (total levels) (Aβ40; brain homogenate, vehicle group, Day 28, total Aβ40, soluble and insoluble not measured independently): + (increases in the levels of Aβ (relative to untreated control) of 20 to 39% are scored as “+”); Aβ42 Change (total levels) (Aβ42; brain homogenate, vehicle group, Day 28, total Aβ42, soluble and insoluble not measured independently): ++ (increases of 40 to 69% are scored as “++”)
O=S(=O)(O)CCCNC1CCCc2ccccc21 (stereo not shown) [Compound BU, 3-(1,2,3,4-tetrahydro-1-naphthylamino)-1-propanesulfonic acid] |  |  |  |  |  |  |  |  |  |  |  |  | −− (decreases of 20 to 38% are scored as “−−”) | −− (decreases of 20 to 38% are scored as “−−”) | Aβ40 Change Soluble (Aβ40; [5]): − (Decreases in the levels of Aβ of 5 to 19% are scored as “−”); Aβ40 Change (Aβ40; [7]): − (Decreases in the levels of Aβ of 5 to 19% are scored as “−”); Aβ42 Change Insoluble (Aβ42; [5]): −−− (decreases of 39% or more are scored as “−−−”); Aβ42 Change Insoluble (Aβ42; [6]): −− (decreases of 20 to 38% are scored as “−−”)
CCCCCNCCCS(=O)(=O)O [CF, 3-pentylamino-1-propanesulfonic acid] | − (Decreases in the levels of Aβ of 5 to 19% are scored as “−”) | ++ (increases of 40 to 69% are scored as “++”) |  |  |  | −− (decreases of 20 to 38% are scored as “−−”) | − (Decreases in the levels of Aβ of 5 to 19% are scored as “−”) | + (increases in the levels of Aβ (relative to untreated control) of 20 to 39% are scored as “+”) |  |  |  | + (increases in the levels of Aβ (relative to untreated control) of 20 to 39% are scored as “+”) |  |  | 
CCCC(CO)NCCCS(=O)(=O)O (racemic) [Compound CA, 3-[(dl)-1-hydroxy-2-pentyl]amino-1-propane-sulfonic acid] | − (Decreases in the levels of Aβ of 5 to 19% are scored as “−”) | + (increases in the levels of Aβ (relative to untreated control) of 20 to 39% are scored as “+”) | ++ (increases of 40 to 69% are scored as “++”) | +++ (increases of 70% or higher are scored as “+++”) | +++ (increases of 70% or higher are scored as “+++”) | −− (decreases of 20 to 38% are scored as “−−”) |  | + (increases in the levels of Aβ (relative to untreated control) of 20 to 39% are scored as “+”) | + (increases in the levels of Aβ (relative to untreated control) of 20 to 39% are scored as “+”) | +++ (increases of 70% or higher are scored as “+++”) | +++ (increases of 70% or higher are scored as “+++”) | + (increases in the levels of Aβ (relative to untreated control) of 20 to 39% are scored as “+”) |  |  | 
O=S(=O)(O)CCCNCCc1c[nH]c2ccccc12 [Compound BT, 3-{[2-(3-indolyl)ethyl]-amino}-1-propanesulfonic acid] |  |  |  |  |  |  |  |  |  |  |  |  | ++ (increases of 40 to 69% are scored as “++”) | −− (decreases of 20 to 38% are scored as “−−”) | Aβ40 Change Insoluble (Aβ40; [5]): +++ (increases of 70% or higher are scored as “+++”); Aβ42 Change Soluble (Aβ42; [5]): ++ (increases of 40 to 69% are scored as “++”); Aβ42 Change Soluble (Aβ42; [6]): ++ (increases of 40 to 69% are scored as “++”)
CCCCCCCCCNCCCS(=O)(=O)O [DA, 3-nonylamino-1-propanesulfonic acid] |  |  |  |  |  |  |  |  |  |  |  |  | −− (decreases of 20 to 38% are scored as “−−”) | −− (decreases of 20 to 38% are scored as “−−”) | Aβ40 Change Insoluble (Aβ40; [5]): −−− (decreases of 39% or more are scored as “−−−”); Aβ40 Change Soluble (Aβ40; [5]): − (Decreases in the levels of Aβ of 5 to 19% are scored as “−”); Aβ42 Change Insoluble (Aβ42; [5]): −− (decreases of 20 to 38% are scored as “−−”); Aβ42 Change Soluble (Aβ42; [5]): −− (decreases of 20 to 38% are scored as “−−”); Aβ42 Change Insoluble (Aβ42; [6]): −− (decreases of 20 to 38% are scored as “−−”); Aβ42 Change (Aβ42; [7]): + (increases in the levels of Aβ (relative to untreated control) of 20 to 39% are scored as “+”); Aβ42 Change (Aβ42; methylcellulose group, Day 28, 250 mg/kg daily oral): + (increases in the levels of Aβ (relative to untreated control) of 20 to 39% are scored as “+”)
